Assay results taken from patent US8633251B2, “Derivatives of aminoalkanols, method of obtaining of aminoalkanols and their use” (Uniwersytet Jagiellonski, priority 2008, dated 2014).
Where a name gives a salt, the structure may show the parent alone.

How the values were obtained:
Type in all cases: in vivo
[1] = system: neurotoxicity (rotarod); assay: Neurotoxicity test (TOX), rotarod, mice
Procedure: (§1) In order to define anticonvulsant activity, screening tests were performed, using animal models of seizures. […] Each substance (after dissolving in methylcellulose) was normally tested in doses 30, 100, and 300 mg/kg body weight (b.w.) (mice) or in 30 and 50 mg/kg b.w. (rats) in two possible routes of administration: intraperitoneal (i.p.) or oral (p.o.). Appropriate tests were performed 0.5 and 4 h after administration of the compound. […] (mice) the tests were also performed in doses 10 and 3 mg/kg b.w.
It is performed with use of rotarod test. The animal is placed on a plastic rod (1 inch in diameter), rotating 6 rpm. The rod is placed on a level discouraging the animal to jump off. […] Neurotoxicity is stated if the animal cannot stay on the rod for 1 min. in any of 3 trials. Normally the test is performed in dose 30 mg/kg b.w. in 4 mice (0.5 h) and in 2 mice (4 h), in the dose 100 mg/kg b.w. in 8 mice (0.5 h) and in 4 mice (4 h) and in the dose 300 mg/kg b.w. in 4 mice (0.5 h) and 2 mice (4 h).

[2] = system: pentylenetetrazol-induced seizures; assay: Subcutaneous Metrazol Test (ScMet), mice
Procedure: In order to define anticonvulsant activity, screening tests were performed, using animal models of seizures. […] The tests were based on administration of a compound to an animal and after certain time inducing state similar to epilepsy attack in human. Each substance (after dissolving in methylcellulose) was normally tested in doses 30, 100, and 300 mg/kg body weight (b.w.) (mice) or in 30 and 50 mg/kg b.w. (rats) in two possible routes of administration: intraperitoneal (i.p.) or oral (p.o.). Appropriate tests were performed 0.5 and 4 h after administration of the compound. […] (mice) the tests were also performed in doses 10 and 3 mg/kg b.w.
Subcutaneous Metrazol Test (ScMet) is a chemical test, where compounds are tested for activity in absence seizures (petit mal epilepsy). Pentetrazol (metrazol) is considered to block chloride channel in the GABAA receptor complex, therefore at a certain dose in animals it causes myoclonic jerks, next—clonic seizures, and then tonic seizures. The procedure consists in administration of a tested compound and after 0.5 or 4 h subcutaneous administration of pentylenetetrazol in the dose of 85 mg/kg b.w. (mice) or 70 mg/kg b.w. (rats) in a 0.85% solution in 0.9% NaCl. […] Normally the test is performed in single animals.

[3] = system: maximal electroshock seizures; assay: Maximum Electroshock Seizure (MES) test, mice; details: for MES, No. of protected animals/No. of used animals: mice
Procedure: as §1
Maximum Electroshock Seizure (MES) test is an electric test, verifying activity towards generalized tonic-clonic seizures (grand mal epilepsy). […] Its procedure consists in administration to an animal a mentioned dose, and after 0.5 or 4 h attaching corneal electrodes (after anesthetic eye-drops: 0.5% tetracaine hydrochloride in 0.9% NaCl) and turning on electric current (60 Hz, 0.2 s, 50 mA (mice) or 150 mA (rats)). […] Normally, in the dose 30 mg/kg b.w. the test is done in 1 mouse after 0.5 or 4 h, in the dose 100 mg/kg b.w.—in 3 mice, and in the dose 300 mg/kg b.w.—in 1 mouse.

[4] = mice, dose 100 mg/kg b.w., time 0.5 h
[5] = mice, dose 100 mg/kg b.w., time 4 h
[6] = mice, dose 300 mg/kg b.w., time 0.5 h
[7] = dose 100 mg/kg b.w., time 0.5 h
[8] = mice, dose 30 mg/kg b.w., time 0.5 h
[9] = dose 300 mg/kg b.w., time 0.5 h
[10] = mice, dose 100 mg/kg b.w., 0.5 h
[11] = mice, dose 300 mg/kg b.w., 0.5 h
[12] = Mus musculus, 0.5 h, read-out: MES, No. of protected animals/No. of used animals

SMILES: CCC(O)CNCCCOc1c(C)cccc1C (racemic) [Compound 54, R,S-1N-[(2,6-dimethylphenoxy)propyl]amino-2-butanol]
- TOX, No. of animals exhibiting motor impairment/no. of used animals ([1]; mouse, in vivo, 30 mg/kg): 1/4
- TOX, No. of animals exhibiting motor impairment/no. of used animals ([1]; mouse, in vivo, 300 mg/kg): 4/4
- ScMet, No. of protected animals/No. of used animals ([2]; dose 30 mg/kg b.w., 0.5 h): 1/5
- ScMet, No. of protected animals/No. of used animals ([2]; dose 30 mg/kg b.w., 4 h): 1/1
- MES, No. of protected animals/No. of used animals ([3]; dose 100 mg/kg b.w., 0.5 h): 2/2

SMILES: Cc1cccc(OCCNCC(O)c2ccccc2)c1C (stereo not drawn) [Compound 4, R,S-2N-[(2,3-dimethylphenoxy)ethyl]amino-1-phenylethanol]
- TOX, No. of animals exhibiting motor impairment/no. of used animals [1, 4]: 4/8
- TOX, No. of animals exhibiting motor impairment/no. of used animals [1, 5]: 1/4
- TOX, No. of animals exhibiting motor impairment/no. of used animals [1, 6]: 3/4
- ScMet, No. of protected animals/No. of used animals ([2]; dose 30 mg/kg b.w., time 0.5 h): 1/5

SMILES: CC[C@@H](CO)NCCOc1cc(C)cc(C)c1C [Compound 41, S-(+)-2N-[(2,3,5-trimethylphenoxy)ethyl]amino-1-butanol]
- TOX, No. of animals exhibiting motor impairment/no. of used animals ([1]; mouse, in vivo, 30 mg/kg): 3/4
- TOX, No. of animals exhibiting motor impairment/no. of used animals ([1]; mouse, in vivo, 100 mg/kg): 7/8
- TOX, No. of animals exhibiting motor impairment/no. of used animals ([1]; mouse, in vivo, 300 mg/kg): 4/4
- MES, No. of protected animals/No. of used animals ([3]; dose 30 mg/kg b.w., time 0.5 h): 1/1
- MES, No. of protected animals/No. of used animals [3, 7]: 3/3

SMILES: Cc1cc(C)c(C)c(OCCNCC(O)c2ccccc2)c1.Cl (stereo not drawn) [Compound 42, R,S-2N-[(2,3,5-trimethylphenoxy)ethyl]amino-1-phenylethanol hydrochloride]
- TOX, No. of animals exhibiting motor impairment/no. of used animals [1, 8]: 3/4
- TOX, No. of animals exhibiting motor impairment/no. of used animals ([1]; mice, dose 30 mg/kg b.w., time 4 h): 1/2
- TOX, No. of animals exhibiting motor impairment/no. of used animals [1, 4]: 8/8
- TOX, No. of animals exhibiting motor impairment/no. of used animals [1, 5]: 4/4
- TOX, No. of animals exhibiting motor impairment/no. of used animals [1, 6]: 4/4
- TOX, No. of animals exhibiting motor impairment/no. of used animals ([1]; mice, dose 300 mg/kg b.w., time 4 h): 1/1
- MES, No. of protected animals/No. of used animals [3, 7]: 3/3
- MES, No. of protected animals/No. of used animals ([3]; dose 100 mg/kg b.w., time 4 h): 1/3
- MES, No. of protected animals/No. of used animals [3, 9]: 1/1

SMILES: Cc1cc(C)c(OCCN[C@H](C)CO)c(C)c1 [Compound 43, R-(−)-2N-[(2.4.6-trimethylphenoxy)ethyl]amino-1-propanol]
- TOX, No. of animals exhibiting motor impairment/no. of used animals [1, 8]: 3/4
- TOX, No. of animals exhibiting motor impairment/no. of used animals [1, 4]: 8/8
- TOX, No. of animals exhibiting motor impairment/no. of used animals [1, 6]: 4/4
- MES, No. of protected animals/No. of used animals [3, 7]: 3/3

SMILES: Cc1cc(C)c(OCCNCC(O)c2ccccc2)c(C)c1 (stereo not drawn) [Compound 45, R,S-2N-[(2,4,6-trimethylphenoxy)ethyl]amino-1-phenylethanol]
- TOX, No. of animals exhibiting motor impairment/no. of used animals [1, 6]: 3/4
- MES, No. of protected animals/No. of used animals [3, 7]: 3/3
- MES, No. of protected animals/No. of used animals [3, 9]: 1/1
- MES, No. of protected animals/No. of used animals ([3]; dose 300 mg/kg b.w., time 4 h): 1/1

SMILES: Cc1cccc(C)c1OCCCN[C@H](C)CO [Compound 52, R-(−)-2N-[(2,6-dimethylphenoxy)propyl]amino-1-propanol hydrochloride]
- TOX, No. of animals exhibiting motor impairment/no. of used animals ([1]; mice, dose 10 mg/kg b.w., 0.5 h): 1/4
- TOX, No. of animals exhibiting motor impairment/no. of used animals [1, 10]: 6/8
- TOX, No. of animals exhibiting motor impairment/no. of used animals ([1]; mice, dose 100 mg/kg b.w., 4 h): 1/4
- TOX, No. of animals exhibiting motor impairment/no. of used animals [1, 11]: 3/4
- responders at 30 mg/kg [3, 12]: 100%
- responders at 100 mg/kg [3, 12]: 66.7%
- responders at 300 mg/kg ([3]; Mus musculus, 4 h, read-out: MES, No. of protected animals/No. of used animals): 100%

SMILES: Cc1cccc(C)c1OCC(=O)N(C)CCO [Compound 59, R,S-2N-[(2,6-dimethylphenoxy)acetyl]-2N-methylamino-1-ethanol]
- ScMet, No. of protected animals/No. of used animals ([2]; dose 300 mg/kg b.w., 0.5 h): 1/1
- MES, No. of protected animals/No. of used animals ([3]; dose 300 mg/kg b.w., 0.5 h): 1/1

SMILES: Cc1cccc(C)c1OCC(=O)NC(C)CO (stereo not drawn) [Compound 60, R,S-2N-[(2,6-dimethylphenoxy)acetyl]amino-1-propanol]
- TOX, No. of animals exhibiting motor impairment/no. of used animals [1, 10]: 2/8
- TOX, No. of animals exhibiting motor impairment/no. of used animals ([1]; mice, dose 100 mg/kg b.w., 4 h): 2/4
- TOX, No. of animals exhibiting motor impairment/no. of used animals [1, 11]: 4/4
- MES, No. of protected animals/No. of used animals ([3]; dose 300 mg/kg b.w., 0.5 h): 1/1

SMILES: Cc1cccc(C)c1OCC(=O)N[C@@H](C)CO [Compound 62, S-(−)-2N-[(2,6-dimethylphenoxy)acetyl]amino-1-propanol]
- TOX, No. of animals exhibiting motor impairment/no. of used animals ([1]; mice, dose 30 mg/kg b.w., 0.5 h): 1/4
- TOX, No. of animals exhibiting motor impairment/no. of used animals [1, 10]: 3/8
- TOX, No. of animals exhibiting motor impairment/no. of used animals ([1]; mice, dose 100 mg/kg b.w., 4 h): 1/4
- TOX, No. of animals exhibiting motor impairment/no. of used animals [1, 11]: 3/4
- TOX, No. of animals exhibiting motor impairment/no. of used animals ([1]; mice, dose 300 mg/kg b.w., 4 h): 1/2
- MES, No. of protected animals/No. of used animals ([3]; dose 300 mg/kg b.w., 0.5 h): 1/1
- MES, No. of protected animals/No. of used animals ([3]; dose 300 mg/kg b.w., 4 h): 1/1
